13 compounds from ChEMBL document CHEMBL5465560, “Selectivity Literature for EUbOPEN Chemogenomic Library” (2024) can be followed below.

Usually IC50 stands for the concentration that inhibits the measured activity by half.

Assay [1] addresses Dual specificity mitogen-activated protein kinase kinase 1 (Homo sapiens, UniProt Q02750). Nature of the assay: Selectivity interaction (Kinase panel (KiNativ target engagement assay in Jurkat cells)) EUB0001635a MAP2K1. The following applies: Selectivity number of off-targets 0.0, Selectivity number of targets 233.0, Source Knowledge https://www.sciencedirect.com/science/article/pii/S2451945619300674?via%3Dihub, at 1 µM. It is filed as cell-based.

The test system of assay [2] is Epidermal growth factor receptor (Homo sapiens), P00533 [UNDEFINED MUTATION]. Nature of the assay: Selectivity interaction (KinomeScan (DiscoverX)) EUB0000607a EGFR. The conditions noted are these: at 10 µM.
Chain of Epidermal growth factor receptor (Homo sapiens), P00533 [UNDEFINED MUTATION] (P00533 whole entry, looked up, change not shown): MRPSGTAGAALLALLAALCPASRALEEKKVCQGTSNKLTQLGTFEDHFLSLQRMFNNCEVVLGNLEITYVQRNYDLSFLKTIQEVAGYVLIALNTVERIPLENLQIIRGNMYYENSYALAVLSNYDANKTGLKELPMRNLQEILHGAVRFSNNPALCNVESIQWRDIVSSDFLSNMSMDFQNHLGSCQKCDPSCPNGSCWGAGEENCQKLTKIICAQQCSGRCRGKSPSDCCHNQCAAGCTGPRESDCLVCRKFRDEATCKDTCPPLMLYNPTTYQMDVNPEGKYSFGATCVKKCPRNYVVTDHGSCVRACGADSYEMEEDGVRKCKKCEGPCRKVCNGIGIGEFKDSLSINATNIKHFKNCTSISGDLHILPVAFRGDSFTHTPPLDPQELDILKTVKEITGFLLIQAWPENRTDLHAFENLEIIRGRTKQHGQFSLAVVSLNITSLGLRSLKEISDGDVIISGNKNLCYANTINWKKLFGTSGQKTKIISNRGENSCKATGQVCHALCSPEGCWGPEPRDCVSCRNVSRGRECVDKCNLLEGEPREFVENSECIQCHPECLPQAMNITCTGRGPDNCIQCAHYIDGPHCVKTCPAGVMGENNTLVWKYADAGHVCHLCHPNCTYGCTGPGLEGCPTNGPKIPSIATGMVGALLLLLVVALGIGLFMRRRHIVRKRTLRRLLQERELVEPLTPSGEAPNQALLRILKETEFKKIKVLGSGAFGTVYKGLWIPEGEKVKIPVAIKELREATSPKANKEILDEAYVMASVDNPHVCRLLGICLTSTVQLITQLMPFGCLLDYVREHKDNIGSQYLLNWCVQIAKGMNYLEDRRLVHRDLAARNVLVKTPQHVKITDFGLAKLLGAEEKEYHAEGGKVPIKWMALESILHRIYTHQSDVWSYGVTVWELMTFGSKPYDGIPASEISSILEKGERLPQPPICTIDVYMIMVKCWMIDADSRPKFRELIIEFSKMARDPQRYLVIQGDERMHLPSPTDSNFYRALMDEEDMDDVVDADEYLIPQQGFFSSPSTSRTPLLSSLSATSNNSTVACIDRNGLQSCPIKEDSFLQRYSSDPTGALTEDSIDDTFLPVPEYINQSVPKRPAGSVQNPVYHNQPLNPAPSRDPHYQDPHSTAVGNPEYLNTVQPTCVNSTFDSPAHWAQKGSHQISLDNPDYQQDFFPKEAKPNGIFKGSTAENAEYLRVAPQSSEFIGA
The target of assay [3] is Serine/threonine-protein kinase PLK2 (Homo sapiens, UniProt Q9NYY3). Description: Selectivity interaction (KinomeScan (DiscoverX)) EUB0000607a PLK2. The following applies: at 10 µM.
Chain of Serine/threonine-protein kinase PLK2 (Q9NYY3 whole entry, looked up): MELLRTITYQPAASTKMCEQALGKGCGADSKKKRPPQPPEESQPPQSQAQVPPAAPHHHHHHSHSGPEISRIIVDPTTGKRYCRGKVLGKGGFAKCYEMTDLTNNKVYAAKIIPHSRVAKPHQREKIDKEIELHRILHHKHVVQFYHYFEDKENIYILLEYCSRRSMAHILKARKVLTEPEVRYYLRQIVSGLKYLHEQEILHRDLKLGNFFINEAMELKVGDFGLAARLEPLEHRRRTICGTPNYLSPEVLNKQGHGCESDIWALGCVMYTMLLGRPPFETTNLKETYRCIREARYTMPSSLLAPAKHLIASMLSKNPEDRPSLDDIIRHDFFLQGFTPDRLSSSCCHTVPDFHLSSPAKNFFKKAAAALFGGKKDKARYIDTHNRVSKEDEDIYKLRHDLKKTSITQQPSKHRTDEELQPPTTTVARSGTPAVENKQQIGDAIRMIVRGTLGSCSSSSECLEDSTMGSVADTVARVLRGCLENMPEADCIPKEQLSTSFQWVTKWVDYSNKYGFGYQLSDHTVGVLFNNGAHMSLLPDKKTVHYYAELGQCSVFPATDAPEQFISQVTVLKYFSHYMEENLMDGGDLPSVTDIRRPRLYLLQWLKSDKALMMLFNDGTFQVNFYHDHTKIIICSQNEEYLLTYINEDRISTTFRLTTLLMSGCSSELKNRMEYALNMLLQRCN
The target in assay [4] is T1, Serine/threonine-protein kinase PLK4 (Homo sapiens) (UniProt O00444).
T1 sequence (whole entry): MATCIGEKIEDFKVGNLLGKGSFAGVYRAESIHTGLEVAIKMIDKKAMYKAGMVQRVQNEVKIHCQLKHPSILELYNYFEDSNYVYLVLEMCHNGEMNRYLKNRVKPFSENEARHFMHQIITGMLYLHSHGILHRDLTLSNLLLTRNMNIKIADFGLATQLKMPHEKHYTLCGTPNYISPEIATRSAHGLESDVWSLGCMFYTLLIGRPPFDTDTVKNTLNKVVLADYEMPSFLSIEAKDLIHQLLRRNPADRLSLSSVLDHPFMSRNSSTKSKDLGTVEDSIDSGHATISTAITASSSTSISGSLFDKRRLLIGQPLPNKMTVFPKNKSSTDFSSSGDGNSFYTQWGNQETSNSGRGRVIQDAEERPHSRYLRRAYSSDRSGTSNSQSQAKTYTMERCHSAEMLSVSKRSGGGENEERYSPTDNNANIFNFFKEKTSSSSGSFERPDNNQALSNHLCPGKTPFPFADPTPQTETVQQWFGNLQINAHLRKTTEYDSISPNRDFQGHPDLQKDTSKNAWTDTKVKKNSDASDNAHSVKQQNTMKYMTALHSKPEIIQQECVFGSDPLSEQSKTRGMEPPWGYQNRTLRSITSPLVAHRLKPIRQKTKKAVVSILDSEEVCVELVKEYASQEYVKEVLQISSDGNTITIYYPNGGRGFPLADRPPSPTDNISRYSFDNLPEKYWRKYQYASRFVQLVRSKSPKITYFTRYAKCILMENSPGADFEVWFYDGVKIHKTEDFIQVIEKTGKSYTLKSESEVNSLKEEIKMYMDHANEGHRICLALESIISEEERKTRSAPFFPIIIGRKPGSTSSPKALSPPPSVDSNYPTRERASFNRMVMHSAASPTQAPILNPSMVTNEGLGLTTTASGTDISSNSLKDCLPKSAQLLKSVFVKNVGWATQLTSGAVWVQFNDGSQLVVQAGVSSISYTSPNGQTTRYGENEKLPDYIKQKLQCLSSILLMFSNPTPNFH
The following applies: at 10 µM.

A further assay has as its target SRSF protein kinase 1 (Homo sapiens, UniProt Q96SB4). Nature of the assay: Selectivity interaction (KinomeScan (DiscoverX)) EUB0000666a SRPK1. The following applies: at 10 µM.
For assay [5], the target named is Ribosomal protein S6 kinase alpha-2 (Homo sapiens) (UniProt Q15349). Description: Selectivity interaction (KinomeScan (DiscoverX)) EUB0000655a RPS6KA2. The conditions noted are these: at 10 µM.
Assay [6] deals with STE20-like serine/threonine-protein kinase (Homo sapiens, UniProt Q9H2G2). Description: Selectivity interaction (KinomeScan (DiscoverX)) EUB0000655a SLK. The following applies: at 10 µM.
Assay [7] concerns the target Serine/threonine-protein kinase 33 (Homo sapiens) (UniProt Q9BYT3). Nature of the assay: Selectivity interaction (KinomeScan (DiscoverX)) EUB0001619a STK33. The conditions noted are these: at 1 µM.
Assay [8] deals with Receptor tyrosine-protein kinase erbB-2 (Homo sapiens, UniProt P04626). Nature of the assay: Selectivity interaction (Kinase panel (33PanQinase(R) Activity Assay)) EUB0000877a ERBB2.
Chain of Receptor tyrosine-protein kinase erbB-2 (P04626 whole entry): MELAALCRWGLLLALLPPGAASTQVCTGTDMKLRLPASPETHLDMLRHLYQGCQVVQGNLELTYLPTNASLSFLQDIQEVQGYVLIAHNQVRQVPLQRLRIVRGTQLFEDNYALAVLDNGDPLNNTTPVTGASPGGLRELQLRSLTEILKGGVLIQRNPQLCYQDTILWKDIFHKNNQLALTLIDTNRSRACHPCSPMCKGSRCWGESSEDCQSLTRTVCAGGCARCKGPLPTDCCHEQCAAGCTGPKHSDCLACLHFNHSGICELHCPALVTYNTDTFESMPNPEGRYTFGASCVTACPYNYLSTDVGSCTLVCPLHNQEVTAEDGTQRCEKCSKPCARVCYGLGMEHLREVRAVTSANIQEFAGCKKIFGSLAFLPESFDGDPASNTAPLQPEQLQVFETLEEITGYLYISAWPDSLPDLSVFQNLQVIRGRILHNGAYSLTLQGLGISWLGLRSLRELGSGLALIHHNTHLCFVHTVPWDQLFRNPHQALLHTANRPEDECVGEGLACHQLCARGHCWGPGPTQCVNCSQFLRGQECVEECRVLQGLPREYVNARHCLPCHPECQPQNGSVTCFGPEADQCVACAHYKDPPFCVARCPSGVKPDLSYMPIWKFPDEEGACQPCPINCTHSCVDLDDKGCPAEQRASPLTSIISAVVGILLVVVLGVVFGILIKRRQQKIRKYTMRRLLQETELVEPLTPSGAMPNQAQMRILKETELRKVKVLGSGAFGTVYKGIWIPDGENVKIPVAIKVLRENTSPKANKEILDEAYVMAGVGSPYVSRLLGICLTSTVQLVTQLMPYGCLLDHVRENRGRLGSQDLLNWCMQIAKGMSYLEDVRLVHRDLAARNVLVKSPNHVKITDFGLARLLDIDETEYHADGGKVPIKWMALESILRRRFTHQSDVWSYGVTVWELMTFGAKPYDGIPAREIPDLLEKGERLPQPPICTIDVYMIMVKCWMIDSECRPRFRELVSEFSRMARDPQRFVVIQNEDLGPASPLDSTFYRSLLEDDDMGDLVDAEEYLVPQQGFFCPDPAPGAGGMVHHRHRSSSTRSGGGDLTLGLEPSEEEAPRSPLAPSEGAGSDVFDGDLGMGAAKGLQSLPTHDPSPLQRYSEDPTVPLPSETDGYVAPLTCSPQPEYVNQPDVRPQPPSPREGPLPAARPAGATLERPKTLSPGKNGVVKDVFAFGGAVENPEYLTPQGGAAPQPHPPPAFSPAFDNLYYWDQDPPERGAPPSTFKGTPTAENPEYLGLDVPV
Assay [9] concerns the target Calcium/calmodulin-dependent protein kinase type II subunit delta (Homo sapiens) (UniProt Q13557). Nature of the assay: Selectivity interaction (ActivX KiNativ screen (kinase selectivity in THP-1 cell lysates)) EUB0000639a CAMK2D. The format is subcellular. The conditions noted are these: lysate, at 0.01 µM.
Assay [10] deals with T2, Protein kinase C zeta type (Homo sapiens) (UniProt Q05513).
T2 sequence (whole entry): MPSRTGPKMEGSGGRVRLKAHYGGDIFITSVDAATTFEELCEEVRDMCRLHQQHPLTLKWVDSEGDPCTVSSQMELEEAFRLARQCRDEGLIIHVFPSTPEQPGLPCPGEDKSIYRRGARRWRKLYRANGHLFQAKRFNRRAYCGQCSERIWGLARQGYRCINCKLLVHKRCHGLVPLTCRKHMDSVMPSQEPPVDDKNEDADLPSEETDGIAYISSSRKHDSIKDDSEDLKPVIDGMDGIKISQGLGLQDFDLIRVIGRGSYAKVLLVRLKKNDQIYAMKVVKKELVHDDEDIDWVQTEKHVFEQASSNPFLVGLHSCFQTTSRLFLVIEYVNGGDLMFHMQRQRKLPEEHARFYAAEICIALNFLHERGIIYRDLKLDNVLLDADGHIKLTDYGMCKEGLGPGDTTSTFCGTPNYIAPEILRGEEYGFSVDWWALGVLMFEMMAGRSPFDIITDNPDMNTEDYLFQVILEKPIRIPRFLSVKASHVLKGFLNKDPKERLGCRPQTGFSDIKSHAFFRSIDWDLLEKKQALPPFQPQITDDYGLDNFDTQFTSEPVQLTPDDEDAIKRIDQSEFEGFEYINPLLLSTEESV
Nature of the assay: Selectivity interaction (Millipore kinase profiler) EUB0000124b PRKCZ. The following applies: at 10 µM.

The target of assay [11] is Mitogen-activated protein kinase 9 (Homo sapiens, UniProt P45984). Description: Selectivity interaction (KinomeScan (DiscoverX)) EUB0000092b MAPK9. The following applies: at 10 µM.
In another assay the target is Aurora kinase B (Homo sapiens, UniProt Q96GD4). Nature of the assay: Selectivity interaction (KinomeScan (DiscoverX)) EUB0000045b AURKB.
Chain of Aurora kinase B (Q96GD4 whole entry): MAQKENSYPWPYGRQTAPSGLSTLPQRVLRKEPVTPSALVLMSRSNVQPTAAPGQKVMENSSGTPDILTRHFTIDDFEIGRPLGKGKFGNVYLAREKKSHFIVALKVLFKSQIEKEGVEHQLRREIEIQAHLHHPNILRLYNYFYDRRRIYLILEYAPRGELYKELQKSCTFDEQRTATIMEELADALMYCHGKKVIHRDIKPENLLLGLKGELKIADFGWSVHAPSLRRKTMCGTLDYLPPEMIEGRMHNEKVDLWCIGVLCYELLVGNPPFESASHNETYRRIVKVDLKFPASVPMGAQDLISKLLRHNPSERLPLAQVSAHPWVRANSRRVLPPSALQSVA
In assay [12] the target is Death-associated protein kinase 3 (Homo sapiens) (UniProt O43293). Description: Selectivity interaction (KinomeScan (DiscoverX)) EUB0000045b DAPK3.
Chain of Death-associated protein kinase 3 (Homo sapiens) (O43293 whole entry, looked up): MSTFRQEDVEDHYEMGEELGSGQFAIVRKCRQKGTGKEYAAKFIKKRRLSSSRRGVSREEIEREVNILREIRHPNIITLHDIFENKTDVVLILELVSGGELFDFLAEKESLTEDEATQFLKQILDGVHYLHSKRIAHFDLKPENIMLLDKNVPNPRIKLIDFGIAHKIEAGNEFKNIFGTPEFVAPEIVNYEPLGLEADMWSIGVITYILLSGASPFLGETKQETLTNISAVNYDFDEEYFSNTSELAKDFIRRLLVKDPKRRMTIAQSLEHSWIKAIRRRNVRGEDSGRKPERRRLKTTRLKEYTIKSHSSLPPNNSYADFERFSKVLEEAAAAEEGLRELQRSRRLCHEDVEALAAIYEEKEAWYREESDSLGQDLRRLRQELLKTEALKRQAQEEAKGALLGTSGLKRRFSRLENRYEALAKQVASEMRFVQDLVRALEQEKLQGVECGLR
In assay [13] the target is 5'-AMP-activated protein kinase catalytic subunit alpha-2 (Homo sapiens) (UniProt P54646). Nature of the assay: Selectivity interaction (KinomeScan (DiscoverX)) EUB0000045b PRKAA2.
Chain of 5'-AMP-activated protein kinase catalytic subunit alpha-2 (Homo sapiens) (P54646 whole entry, looked up, canonical isoform): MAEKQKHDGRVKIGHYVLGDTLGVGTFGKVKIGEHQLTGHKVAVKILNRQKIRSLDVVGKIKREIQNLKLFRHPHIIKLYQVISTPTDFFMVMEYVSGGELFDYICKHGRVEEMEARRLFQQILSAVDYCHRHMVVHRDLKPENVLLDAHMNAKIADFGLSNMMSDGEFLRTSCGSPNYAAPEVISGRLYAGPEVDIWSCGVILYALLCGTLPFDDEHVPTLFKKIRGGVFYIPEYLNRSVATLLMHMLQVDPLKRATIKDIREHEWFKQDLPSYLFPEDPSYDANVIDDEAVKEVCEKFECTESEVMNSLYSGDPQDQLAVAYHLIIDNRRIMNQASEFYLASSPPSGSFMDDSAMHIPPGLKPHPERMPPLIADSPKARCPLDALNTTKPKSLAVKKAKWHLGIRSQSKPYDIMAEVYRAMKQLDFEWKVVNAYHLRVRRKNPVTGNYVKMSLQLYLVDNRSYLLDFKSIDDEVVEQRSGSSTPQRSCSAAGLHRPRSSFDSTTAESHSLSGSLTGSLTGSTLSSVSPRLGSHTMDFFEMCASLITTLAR
Assay [14] concerns the target Casein kinase I isoform gamma-2 (Homo sapiens) (UniProt P78368). Description: Selectivity interaction (KinomeScan (DiscoverX)) EUB0000618a CSNK1G2. The following applies: at 10 µM.
Assay [15] addresses Insulin-like growth factor 1 receptor (Homo sapiens, UniProt P08069). Description: Selectivity interaction (KinomeScan (DiscoverX)) EUB0000618a IGF1R. The conditions noted are these: at 10 µM.
Assay [16] deals with Serine/threonine-protein kinase SIK2 (Homo sapiens) (UniProt Q9H0K1). The conditions noted are these: at 10 µM.

Chain of Dual specificity mitogen-activated protein kinase kinase 1 (Q02750 whole entry): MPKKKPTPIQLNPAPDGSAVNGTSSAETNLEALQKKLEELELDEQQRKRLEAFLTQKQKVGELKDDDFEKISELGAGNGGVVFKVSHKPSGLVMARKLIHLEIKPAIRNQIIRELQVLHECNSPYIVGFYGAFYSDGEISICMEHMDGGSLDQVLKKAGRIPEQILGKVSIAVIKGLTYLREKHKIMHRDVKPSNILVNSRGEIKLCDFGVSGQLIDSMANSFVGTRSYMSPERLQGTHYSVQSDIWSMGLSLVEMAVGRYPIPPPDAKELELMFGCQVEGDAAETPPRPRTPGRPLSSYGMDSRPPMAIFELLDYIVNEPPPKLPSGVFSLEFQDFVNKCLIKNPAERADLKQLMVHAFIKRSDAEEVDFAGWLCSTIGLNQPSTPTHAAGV

For `C=CC(=O)Nc1ccc(C(=O)Nc2[nH]nc3c2CN(C(=O)N[C@H](CN(C)C)c2ccccc2)C3(C)C)cc1`, the % of engagement in assay [1] was -2.4%. For the compound `CNC(=O)Nc1ccc(-c2nc(N3CC4CCC(C3)O4)c3cnn(C4CCC5(CC4)OCCO5)c3n2)cc1`, the results for the % of control in assay [2] and in assay [3] were 52% and 100%, respectively. `Cc1cc([C@@H](C)Nc2ccccc2C(=O)O)c2nc(N3CCOCC3)cc(=O)n2c1` [AZD-6482] returned a % of control in assay [4] of 100%. Consider `O=C(NOC[C@H](O)CO)c1ccc(F)c(F)c1Nc1ccc(I)cc1F`, for which the % of control at SRSF protein kinase 1 stood at 100%. Consider `CN(C)CCOc1ccc(-c2nc(-c3ccncc3)c(-c3ccc4c(c3)CC/C4=N\O)[nH]2)cc1`, for which the % of control in [5] came to 61%; in [6], 1.3%. For `N#Cc1cccc(-c2c[nH]c3ncnc(N4CCOCC4)c23)c1`, in assay [7], the % of control was 60%. `CCC(=O)N1CC[C@H](Nc2ncnc3c2CN(c2cnc(OC)c(C(F)(F)F)c2)CC3)C1` [LENIOLISIB] gave an IC50 in [8] greater than 10 µM.

As for `CC[C@@H]1[C@H](F)C(=O)N[C@@H]1COc1nccc2cc(C(N)=O)c(OC)cc12` [ZIMLOVISERTIB], in [9], the % of inhibition stood at 3.3%. In assay [10], `CC(=O)Nc1cccc(-n2c(=O)n(C3CC3)c(=O)c3c(Nc4ccc(I)cc4F)n(C)c(=O)c(C)c32)c1` returned a % of control of 102%. In assay [11], `CCC(=O)N1CCN(c2ccc(-n3c(=O)ccc4cnc5ccc(-c6cnc7ccccc7c6)cc5c43)cc2C(F)(F)F)CC1` showed a % of control of 40%. Regarding `C=CC(=O)Nc1cc(-n2c(=O)ccc3cnc4ccc(-c5ccc(NS(C)(=O)=O)cc5)cc4c32)ccc1C`, the % of control on Aurora kinase B (at 1 µM) worked out at 100%; at Aurora kinase B (at 10 µM), 75%; in assay [12] (at 1 µM), 100%; in assay [12] (at 10 µM) it was 60%; in assay [13] (at 1 µM), 92%; in [13] (at 10 µM), 92%. Take `O[C@H]1CC[C@H](Nc2ncc3nc(Nc4c(F)cc(F)cc4F)n([C@H]4CCOC4)c3n2)CC1`: the results for the % of control in assay [14] and in assay [15] were 100% and 90%, respectively.

Regarding `COCC(=O)NC/C=C/c1ccc2ncnc(Nc3ccc(Oc4ccc(C)nc4)c(C)c3)c2c1` [CP-724714], in assay [16], the % of control was found to be 84%.
